Drawing on patent publication US12030835B2, “Substituted amide compounds useful as farnesoid X receptor modulators” (BRISTOL-MYERS SQUIBB COMPANY, priority 2019, dated 2024), this text covers EC50 for 4 compounds.

The experiment addresses T1, human FXR (Homo sapiens, UniProt Q96RI1).
T1 construct: expressed in transfected cells
T1 sequence (Q96RI1 262-486 limits assumed): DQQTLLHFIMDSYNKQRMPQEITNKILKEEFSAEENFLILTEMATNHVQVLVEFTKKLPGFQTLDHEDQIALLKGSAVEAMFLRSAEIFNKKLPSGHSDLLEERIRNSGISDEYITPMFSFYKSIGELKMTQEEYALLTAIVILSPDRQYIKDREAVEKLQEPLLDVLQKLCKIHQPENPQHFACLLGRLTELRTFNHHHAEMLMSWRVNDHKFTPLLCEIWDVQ
Briefly: transient human FXR/Gal4-luciferase reporter assay. Type of experiment: cell-based. The following applies: Gal4-hFXR (ligand binding domain) fusion transiently transfected in HEK293 Gal4-luciferase reporter cells; overnight incubation; response as percentage of 8 μM GW-4064 control. The method, then:
A Gal4-hFXR fusion construct reporter system was used as the primary assay to characterize compound activity. A construct including 5 copies of the Gal4 promoter response element upstream of a firefly luciferase reporter cDNA was stably expressed in HEK293 cells. This reporter cell line was maintained in Dulbecco's Modified Eagle's medium (DMEM; Gibco) supplemented with 1% penicillin-streptomycin (P/S) solution, 500 μg/ml Zeocin and 10% charcoal/dextran-treated fetal bovine serum (cs-FBS) at 37° C. in a humidified 5% CO2 atmosphere. Another plasmid was constructed in which the human cytomegalovirus promoter in the pcDNA3.1 vector directs the expression of the cDNA encoding a fusion protein comprised of the DNA binding domain from the Gal4 transcription factor fused to the ligand binding domain from human FXR.
The day prior to transfection, the reporter cells in culture are detached from the plate with trypsin and plated into a T75 flask at a sufficient density to achieve approximately 90% confluence the next morning. The transfection reagents are prepared by separately diluting 25 μg of the pcDNA3.1-Gal4-FXR plasmid into 1.87 mL of Opti-MEM (Thermo-Fisher), and 40 μL of Lipofectamine 2000 (Thermo-Fisher) into 1.87 mL of Opti-MEM, and then adding the diluted DNA solution into the diluted Lipofectamine 2000 solution and incubating at room temperature for 15-20 minutes. The mixture is further diluted with 10 ml of a solution comprised of DMEM, 10% cs-FBS, and 1% P/S immediately prior to transferring to the cells. The maintenance culture media is aspirated from the cells and the final transfection mixture is added before the cells are incubated overnight at 37° C. in a humidified 5% CO2 atmosphere. This protocol can be scaled up, and the transiently transfected cells can be cryopreserved in an assay-ready format.
For compound testing, 100 nL of the compounds (serial dilutions in DMSO) are dispensed with an Echo acoustic dispenser (Labcyte) into the wells of a Corning/Costar clear bottom 384-well white plate. The transfected cells are harvested, counted, and diluted such that 10-25,000 cells in 25 μL are plated into each well of the 384-well compound assay plate. The compound-treated cells are incubated overnight at 37° C. in a humidified 5% CO2 atmosphere. The next morning 25 μL of Steady-Glo (Promega) are added to each well of the plate, the mixture is incubated for 15 min. with shaking, and luminescence is measured on an Envision (Perkin Elmer) plate reader.
Turning to `COC(=O)/C=C/c1cccc(N(CC23CCC(c4noc(C)n4)(CC2)CC3)C(=O)C2CCCCC2)c1` [Example 44, Methyl (E)-3-(3-(N-((4-(5-methyl-1,2,4-oxadiazol-3-yl)bicyclo[2.2.2]octan-1-yl)methyl)cyclohexanecarboxamido)phenyl)acrylate], the EC50 is 87 nM. With `COC(=O)C1=Cc2cccc(N(CC34CCC(c5ccc6c(cnn6C)c5)(CC3)OC4)C(=O)C3CCCCC3)c2CC1` [Example 45, Methyl 5-(N-((1-(1-methyl-1H-indazol-5-yl)-2-oxabicyclo[2.2.2]octan-4-yl)methyl)cyclohexanecarboxamido)-3,4-dihydronaphthalene-2-carboxylate], it took 1150 nM to reach a half-maximal effect (EC50).

In the case of `CC(C)(O)C#Cc1cccc(N(CC23CCC(c4nnc(C(C)(C)C)o4)(CC2)CC3)C(=O)C23CC(F)(C2)C3)c1` [Example 48, N-((4-(5-(tert-Butyl)-1,3,4-oxadiazol-2-yl)bicyclo[2.2.2]octan-1-yl)methyl)-3-fluoro-N-(3-(3-hydroxy-3-methylbut-1-yn-1-yl)phenyl)bicyclo[1.1.1]pentane-1-carboxamide], a half-maximal response (EC50) required 30 nM. The value for `CC(C)(O)C#Cc1cccc(N(CC23CCC(c4noc(C(C)(F)F)n4)(CC2)CC3)C(=O)C23CC(F)(C2)C3)c1` [Example 49, N-((4-(5-(1,1-difluoroethyl)-1,2,4-oxadiazol-3-yl)bicyclo[2.2.2]octan-1-yl)methyl)-3-fluoro-N-(3-(3-hydroxy-3-methylbut-1-yn-1-yl)phenyl)bicyclo[1.1.1]pentane-1-carboxamide] was 39 nM.
